In assay [1] the target is T1, Poly [ADP-ribose] polymerase tankyrase-1 (Homo sapiens, UniProt O95271).
T1 sequence (O95271 whole entry): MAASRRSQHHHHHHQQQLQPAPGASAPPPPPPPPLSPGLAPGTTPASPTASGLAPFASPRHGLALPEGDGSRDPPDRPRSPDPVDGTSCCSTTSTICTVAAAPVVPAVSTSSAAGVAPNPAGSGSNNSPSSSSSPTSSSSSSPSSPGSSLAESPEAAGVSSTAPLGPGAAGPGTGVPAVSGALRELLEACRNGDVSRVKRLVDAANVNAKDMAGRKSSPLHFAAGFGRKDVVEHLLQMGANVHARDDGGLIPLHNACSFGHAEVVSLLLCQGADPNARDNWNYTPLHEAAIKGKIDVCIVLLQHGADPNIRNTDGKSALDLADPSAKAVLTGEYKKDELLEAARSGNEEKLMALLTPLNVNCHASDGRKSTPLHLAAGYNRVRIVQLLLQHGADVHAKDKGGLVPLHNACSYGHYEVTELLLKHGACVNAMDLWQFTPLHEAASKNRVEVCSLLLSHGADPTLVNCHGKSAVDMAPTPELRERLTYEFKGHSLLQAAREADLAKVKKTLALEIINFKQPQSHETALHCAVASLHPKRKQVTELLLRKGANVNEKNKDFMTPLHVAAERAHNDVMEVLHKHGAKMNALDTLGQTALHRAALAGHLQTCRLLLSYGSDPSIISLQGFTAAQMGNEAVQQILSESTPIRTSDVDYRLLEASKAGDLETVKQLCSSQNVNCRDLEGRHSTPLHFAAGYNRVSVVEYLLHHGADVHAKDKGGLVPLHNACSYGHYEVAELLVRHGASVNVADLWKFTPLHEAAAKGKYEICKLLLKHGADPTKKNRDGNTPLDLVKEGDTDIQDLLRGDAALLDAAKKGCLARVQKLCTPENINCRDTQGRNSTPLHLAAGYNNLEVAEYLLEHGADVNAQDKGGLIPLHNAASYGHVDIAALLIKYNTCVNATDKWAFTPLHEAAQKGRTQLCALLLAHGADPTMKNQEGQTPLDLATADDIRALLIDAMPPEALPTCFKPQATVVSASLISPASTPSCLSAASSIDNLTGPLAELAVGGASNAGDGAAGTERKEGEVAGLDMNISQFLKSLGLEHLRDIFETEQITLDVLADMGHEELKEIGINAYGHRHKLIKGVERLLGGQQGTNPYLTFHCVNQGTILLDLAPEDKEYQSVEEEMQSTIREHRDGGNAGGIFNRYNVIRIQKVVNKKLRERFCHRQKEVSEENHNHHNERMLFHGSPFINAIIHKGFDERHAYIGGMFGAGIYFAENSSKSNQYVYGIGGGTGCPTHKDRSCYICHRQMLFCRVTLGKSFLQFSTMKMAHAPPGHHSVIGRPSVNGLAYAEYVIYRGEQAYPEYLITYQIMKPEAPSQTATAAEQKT
In words: Inhibition of human TNKS1 incubated for 30 mins prior to substrate addition measured after 2 hrs by HTRF method. A general note: TR-FRET usually uses a lanthanide donor and a delayed reading to cut background.

Assay [2] concerns the target T1, Poly [ADP-ribose] polymerase tankyrase-1. In words: Inhibition of human TNKS1 after 1 to 2 hrs by fluorescence polarization method. For orientation: Polarisation of emitted light reports the rotation of a fluorescent probe.

One may read the IC50 as the concentration that gives 50% inhibition. In assay [1], `Cc1cccc2c1c(=O)n(C[C@H]1CC[C@@H](C(=O)O)CC1)c(=O)n2Cc1cccc(C(F)(F)F)c1C#N` had a half-inhibitory concentration (IC50) of 316 nM.

Turning to `Cc1c(F)ccc2c1c(=O)n(C[C@H]1CC[C@H](C(=O)O)CC1)c(=O)n2Cc1cccc(C(F)(F)F)c1C#N`, the IC50 in assay [2] was 6.31 nM; in assay [1], 50.1 nM.

For `N#Cc1c(Cn2c(=O)n(C[C@H]3CC[C@H](C(=O)O)CC3)c(=O)c3ccccc32)cccc1C(F)(F)F`, the values for the IC50 in assay [2] and in assay [1] were 7.94 nM and 31.6 nM, respectively.

The values are drawn from ChEMBL document CHEMBL3108764, “Tankyrase inhibitors: potential treatment of hyperproliferative diseases” (ACS Med Chem Lett, 2014).
